Values joined by “and” are separate entries in the source; they are usually repeats but may differ in a detail not shown here. Identical values can stand only once. Like-named read-outs stand apart in the source and are kept apart here.
Columns and labels:
[1] = Pharmacokinetic analysis of SYN120 tablets, single oral dose (Example 8); assay type: in vivo, human; details: for half-life / Tmax / AUC(0-t) / AUC(0-inf) / Cmax: human, plasma
Method: Pharmacokinetic (PK) analysis was performed on 42 subjects (36 males; 6 females) who received SYN120 oral tablets. In this study, subjects received a single oral dose of SYN120 at one of the following doses: 2 mg; 10 mg; 30 mg; 100 mg; 300 mg; and 600 mg. The SYN120 oral tablets used in this study were formulated for immediate release at tablet strengths of 2 mg, 10 mg, and 50 mg. The tablets were formulated using lactose monohydrate, corn starch, sodium starch glycolate, povidone, sodium lauryl sulfate, magnesium stearate, and the coating agent Opadry Yellow. Blood samples were collected at predose and 0.5, 1, 1.5, 2, 3, 4, 6, 8, 12, 16, 24, 32, 36, 48, and 72 hours postdose. During the treatments at 100 mg and higher, the protocol was amended to include an additional blood sample on Study Day 7 (nominal time of 151 hours). Following oral administration, SYN120 absorption was rapid and plasma levels were measurable in all subjects at the first time point (0.5 hours).
Table 14 below provides a summary of the mean PK parameters of plasma SYN120 for all doses.

[2] = Plasma concentrations of SYN120 at 100 mg QD after titration (Example 10); assay type: in vivo, human; details: for Plasma concentration of SYN120, individual samples: 100 mg QD after titration; for Plasma concentration of SYN120, Max / Plasma concentration of SYN120, Median / Plasma concentration of SYN120, Min / Plasma concentration of SYN120, Mean: 100 mg QD
Method: Patients taking SYN120 are titrated from a starting dose of 20 mg SYN120 QD for the first 7 days, followed by 50 mg SYN120 QD for the next 7 days, then 100 mg SYN120 QD for the remaining portion of the study. Plasma samples are taken on study weeks 4, 8 and 16, and a shown below in Table 17.

5-HT2A receptor = 5-HT2A receptor (Homo sapiens, UniProt P28223); details: cited from earlier work
5-HT2A receptor, sequence (P28223 whole entry): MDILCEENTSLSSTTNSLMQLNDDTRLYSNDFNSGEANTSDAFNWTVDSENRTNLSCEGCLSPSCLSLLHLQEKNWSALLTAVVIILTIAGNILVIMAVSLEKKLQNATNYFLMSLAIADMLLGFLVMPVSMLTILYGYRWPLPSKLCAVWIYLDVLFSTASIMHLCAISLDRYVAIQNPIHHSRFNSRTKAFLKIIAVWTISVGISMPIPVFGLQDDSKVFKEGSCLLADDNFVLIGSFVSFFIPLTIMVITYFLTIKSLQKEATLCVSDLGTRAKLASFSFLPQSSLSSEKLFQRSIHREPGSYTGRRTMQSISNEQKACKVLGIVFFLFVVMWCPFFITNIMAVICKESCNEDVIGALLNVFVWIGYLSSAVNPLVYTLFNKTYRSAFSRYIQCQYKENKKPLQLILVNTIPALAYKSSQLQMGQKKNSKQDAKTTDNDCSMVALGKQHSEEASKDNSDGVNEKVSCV

[3] = female, oral, 100 mg single dose, females, arithmetic mean
[4] = female, single oral dose 100 mg (females), Cohort E, geometric mean
[5] = single oral dose 2 mg, Cohort A, geometric mean
[6] = single oral dose 10 mg, Cohort B, geometric mean
[7] = single oral dose 30 mg, Cohort C, geometric mean
[8] = single oral dose 300 mg, Cohort F, geometric mean
[9] = single oral dose 600 mg, Cohort G, geometric mean
[10] = male, oral, 100 mg single dose, males, arithmetic mean
[11] = male, single oral dose 100 mg (males), Cohort D, geometric mean
[12] = single oral dose 2 mg, Cohort A, arithmetic mean ±SD
[13] = single oral dose 10 mg, Cohort B, arithmetic mean ±SD
[14] = single oral dose 30 mg, Cohort C, arithmetic mean ±SD
[15] = single oral dose 100 mg (females), Cohort E, arithmetic mean ±SD
[16] = single oral dose 100 mg (males), Cohort D, arithmetic mean ±SD
[17] = single oral dose 300 mg, Cohort F, arithmetic mean ±SD
[18] = single oral dose 600 mg, Cohort G, arithmetic mean ±SD

With NC(=O)NC[C@@H]1CCCc2cc(S(=O)(=O)c3cccc(F)c3)ccc21 [SYN120] the half-life ([1]; both sexes, oral, range across single-dose treatment groups, read-out: mean apparent elimination half-life) was 8.45 to 12.4 h, the Tmax ([1]; both sexes, oral, single doses of 100 mg and above, read-out: Tmax estimates) was ~4 h and the AUC(0-t) ([1]; female, oral, 100 mg, 100 mg single dose, females, arithmetic mean, read-out: AUC0-24) was 4670 ± 2990 ng·h/mL. For the same molecule, the AUC(0-t) ([1]; female, oral, 100 mg, 100 mg single dose, females, arithmetic mean, read-out: AUC0-t) was 5960 ± 3650 ng·h/mL, the AUC(0-inf) [1, 3] was 5980 ± 3660 ng·h/mL and the Cmax [1, 3] was 532 ± 218 ng/mL. For the same molecule, the AUC(0-t) ([1]; female, po, 100 mg, single oral dose 100 mg (females), Cohort E, geometric mean, read-out: AUC0-24) was 4000 ng·h/mL, the AUC(0-t) ([1]; female, po, 100 mg, single oral dose 100 mg (females), Cohort E, geometric mean, read-out: AUC0-t) was 5100 ng·h/mL and the half-life ([1]; female, single oral dose 100 mg (females), Cohort E, arithmetic mean ±SD, read-out: t1/2 (converted)) was 12.4 h. For the same molecule, the AUC(0-inf) [1, 4] was 5120 ng·h/mL, the Cmax [1, 4] was 498 ng/mL and the Tmax ([1]; female, single oral dose 100 mg (females), Cohort E, median, read-out: Tmax) was 2.51 h. For the same molecule, the half-life ([1]; oral, general statement, read-out: elimination half-life (t1/2)) was 8 to 12 h, the Tmax ([1]; oral, single dose 2 to 30 mg, on average, read-out: Tmax) was ~2 h and the AUC(0-t) ([1]; po, 2 mg, single oral dose 2 mg, Cohort A, geometric mean, read-out: AUC0-24) was 118 ng·h/mL. It also gave an AUC(0-t) ([1]; po, 2 mg, single oral dose 2 mg, Cohort A, geometric mean, read-out: AUC0-t) of 139 ng·h/mL, an AUC(0-t) ([1]; po, 10 mg, single oral dose 10 mg, Cohort B, geometric mean, read-out: AUC0-24) of 351 ng·h/mL and an AUC(0-t) ([1]; po, 10 mg, single oral dose 10 mg, Cohort B, geometric mean, read-out: AUC0-t) of 384 ng·h/mL. For the same molecule, the AUC(0-t) ([1]; po, 30 mg, single oral dose 30 mg, Cohort C, geometric mean, read-out: AUC0-24) was 1540 ng·h/mL, the AUC(0-t) ([1]; po, 30 mg, single oral dose 30 mg, Cohort C, geometric mean, read-out: AUC0-t) was 1750 ng·h/mL and the AUC(0-t) ([1]; po, 300 mg, single oral dose 300 mg, Cohort F, geometric mean, read-out: AUC0-24) was 21300 ng·h/mL. For the same molecule, the AUC(0-t) ([1]; po, 300 mg, single oral dose 300 mg, Cohort F, geometric mean, read-out: AUC0-t) was 27400 ng·h/mL, the AUC(0-t) ([1]; po, 600 mg, single oral dose 600 mg, Cohort G, geometric mean, read-out: AUC0-24) was 27600 ng·h/mL and the AUC(0-t) ([1]; po, 600 mg, single oral dose 600 mg, Cohort G, geometric mean, read-out: AUC0-t) was 42500 ng·h/mL. For the same molecule, the half-life ([1]; single oral dose 2 mg, Cohort A, arithmetic mean ±SD, read-out: t1/2 (converted)) was 11.4 ± 5.11 h, the AUC(0-inf) [1, 5] was 146 ng·h/mL and the Cmax [1, 5] was 11.8 ng/mL. It also gave a Tmax ([1]; single oral dose 2 mg, Cohort A, median, read-out: Tmax) of 2.02 h, a half-life ([1]; single oral dose 10 mg, Cohort B, arithmetic mean ±SD, read-out: t1/2 (converted)) of 8.45 ± 2.31 h and an AUC(0-inf) [1, 6] of 389 ng·h/mL. It also gave a Cmax [1, 6] of 48.7 ng/mL, a Tmax ([1]; single oral dose 10 mg, Cohort B, median, read-out: Tmax) of 1.76 h and a half-life ([1]; single oral dose 30 mg, Cohort C, arithmetic mean ±SD, read-out: t1/2 (converted)) of 8.92 ± 1.39 h. For the same molecule, the AUC(0-inf) [1, 7] was 1770 ng·h/mL, the Cmax [1, 7] was 179 ng/mL and the Tmax ([1]; single oral dose 30 mg, Cohort C, median, read-out: Tmax) was 2.26 h. The half-life ([1]; single oral dose 300 mg, Cohort F, arithmetic mean ±SD, read-out: t1/2 (converted)) was 9.58 ± 3.46 h, the AUC(0-inf) [1, 8] was 27400 ng·h/mL and the Cmax [1, 8] was 1730 ng/mL. For the same molecule, the Tmax ([1]; single oral dose 300 mg, Cohort F, median, read-out: Tmax) was 3.53 h, the half-life ([1]; single oral dose 600 mg, Cohort G, arithmetic mean ±SD, read-out: t1/2 (converted)) was 12 ± 4.81 h and the AUC(0-inf) [1, 9] was 42900 ng·h/mL. For the same molecule, the Cmax [1, 9] was 2080 ng/mL, the Tmax ([1]; single oral dose 600 mg, Cohort G, median, read-out: Tmax) was 4.51 h and the AUC(0-t) ([1]; male, oral, 100 mg, 100 mg single dose, males, arithmetic mean, read-out: AUC0-24) was 6470 ± 3330 ng·h/mL. It also gave an AUC(0-t) ([1]; male, oral, 100 mg, 100 mg single dose, males, arithmetic mean, read-out: AUC0-t) of 7980 ± 4800 ng·h/mL, an AUC(0-inf) [1, 10] of 8060 ± 4880 ng·h/mL and a Cmax [1, 10] of 623 ± 180 ng/mL. For the same molecule, the AUC(0-t) ([1]; male, po, 100 mg, single oral dose 100 mg (males), Cohort D, geometric mean, read-out: AUC0-24) was 5870 ng·h/mL, the AUC(0-t) ([1]; male, po, 100 mg, single oral dose 100 mg (males), Cohort D, geometric mean, read-out: AUC0-t) was 7010 ng·h/mL and the half-life ([1]; male, single oral dose 100 mg (males), Cohort D, arithmetic mean ±SD, read-out: t1/2 (converted)) was 11 h. For the same molecule, the AUC(0-inf) [1, 11] was 7060 ng·h/mL, the Cmax [1, 11] was 604 ng/mL and the Tmax ([1]; male, single oral dose 100 mg (males), Cohort D, median, read-out: Tmax) was 4 h. The CL/F [1, 12] was 18.8 ± 15.2 L/h, the Vs/F [1, 12] was 264 ± 191 L and the CL/F [1, 13] was 29.0 ± 15.0 L/h. It also gave a Vs/F [1, 13] of 379 ± 283 L, a CL/F [1, 14] of 19.2 ± 9.58 L/h and a Vs/F [1, 14] of 253 ± 149 L. The CL/F [1, 15] was 22.5 L/h and 22.5 ± 11.9 L/h, the Vs/F [1, 15] was 448 L and 448 ± 500 L and the CL/F [1, 16] was 15.8 L/h and 15.8 ± 7.56 L/h. The Vs/F [1, 16] was 227 L and 227 ± 94.2 L, the CL/F [1, 17] was 11.7 ± 4.81 L/h and the Vs/F [1, 17] was 154 ± 57.3 L. The CL/F [1, 18] was 15.7 ± 7.96 L/h, the Vs/F [1, 18] was 246 ± 97.6 L and the “Plasma concentration of SYN120, individual samples” value ([2]; time range 0.5 h-1.5 h) was 1310 ng/mL and 297 ng/mL and 116 ng/mL and 476 ng/mL and 326 ng/mL and 8.57 ng/mL and 309 ng/mL. For the same molecule, the “Plasma concentration of SYN120, individual samples” value ([2]; time range 1.5 h-2.5 h) was 120 ng/mL and 558 ng/mL and 314 ng/mL and 705 ng/mL and 229 ng/mL and 235 ng/mL and 430 ng/mL and 581 ng/mL, the “Plasma concentration of SYN120, individual samples” value ([2]; time range 2.5 h-3.5 h) was 1660 ng/mL and 355 ng/mL and 473 ng/mL and 410 ng/mL and 1220 ng/mL and 1620 ng/mL and 767 ng/mL and the “Plasma concentration of SYN120, individual samples” value ([2]; time range 3.5 h-4.5 h) was 1330 ng/mL and 855 ng/mL and 24.2 ng/mL and 467 ng/mL and 1190 ng/mL and 1470 ng/mL. For the same molecule, the “Plasma concentration of SYN120, individual samples” value ([2]; time range 4.5 h-7.5 h) was 1160 ng/mL and 124 ng/mL and 344 ng/mL and 989 ng/mL and 1210 ng/mL and 850 ng/mL, the “Plasma concentration of SYN120, Max” value ([2]; time range 0.5 h-1.5 h) was 1310 ng/mL and the “Plasma concentration of SYN120, Median” value ([2]; time range 0.5 h-1.5 h) was 309 ng/mL. For the same molecule, the “Plasma concentration of SYN120, Min” value ([2]; time range 0.5 h-1.5 h) was 8.57 ng/mL, the “Plasma concentration of SYN120, Mean” value ([2]; time range 0.5 h-1.5 h, n 7) was 406.1 ng/mL and the “Plasma concentration of SYN120, Max” value ([2]; time range 1.5 h-2.5 h) was 705 ng/mL. The “Plasma concentration of SYN120, Median” value ([2]; time range 1.5 h-2.5 h) was 372 ng/mL, the “Plasma concentration of SYN120, Min” value ([2]; time range 1.5 h-2.5 h) was 120 ng/mL and the “Plasma concentration of SYN120, Mean” value ([2]; time range 1.5 h-2.5 h, n 8) was 396.5 ng/mL. For the same molecule, the “Plasma concentration of SYN120, Max” value ([2]; time range 2.5 h-3.5 h) was 1660 ng/mL, the “Plasma concentration of SYN120, Median” value ([2]; time range 2.5 h-3.5 h) was 767 ng/mL and the “Plasma concentration of SYN120, Min” value ([2]; time range 2.5 h-3.5 h) was 355 ng/mL. For the same molecule, the “Plasma concentration of SYN120, Mean” value ([2]; time range 2.5 h-3.5 h, n 7) was 929.3 ng/mL, the “Plasma concentration of SYN120, Max” value ([2]; time range 3.5 h-4.5 h) was 1470 ng/mL and the “Plasma concentration of SYN120, Median” value ([2]; time range 3.5 h-4.5 h) was 1023 ng/mL. For the same molecule, the “Plasma concentration of SYN120, Min” value ([2]; time range 3.5 h-4.5 h) was 24.2 ng/mL, the “Plasma concentration of SYN120, Mean” value ([2]; time range 3.5 h-4.5 h, n 6) was 889.4 ng/mL and the “Plasma concentration of SYN120, Max” value ([2]; time range 4.5 h-7.5 h) was 1210 ng/mL. The “Plasma concentration of SYN120, Median” value ([2]; time range 4.5 h-7.5 h) was 920 ng/mL, the “Plasma concentration of SYN120, Min” value ([2]; time range 4.5 h-7.5 h) was 124 ng/mL and the “Plasma concentration of SYN120, Mean” value ([2]; time range 4.5 h-7.5 h, n 6) was 779.5 ng/mL. The “time of peak plasma level after administration” value ([2]; once per day maintenance dosing) was 1 to 4 h and the pKi (5-HT2A receptor) was 7.8.

Source: patent publication US10973784B2, “Compositions and methods for treating Alzheimer's disease and Parkinson's disease” (Biotie Therapies, Inc., priority 2016, dated 2021)
